Measured values taken from patent US20240327334A1, “Covalent Inhibitors As Antiviral Agents” (Enanta Pharmaceuticals, Inc., priority 2022, published 2024).

Experiments:
[1] = target: SARS-CoV-2 Papain-like (PLpro) protease (Severe acute respiratory syndrome coronavirus 2, UniProt P0DTD1); test: SARS-CoV-2 Papain-like (PLpro) protease biochemical enzyme inhibition assay (ubiquitin-fluorophore substrate, Ub-R110); conditions: Ub-R110 substrate; run in duplicate; read-out: PLpro IC50
SARS-CoV-2 replicon = test: microbe, parasite or virus in culture; type: cell-based; conditions: Severe acute respiratory syndrome coronavirus 2, Huh-7

| SMILES | IC50 [1] [nM] | EC50 (SARS-CoV-2 replicon) [nM] |
| --- | --- | --- |
| COc1cccnc1C#CCNC(=O)C(=O)NCc1ccccc1C(=O)NC1(c2cc(F)cc(-c3cn(C)nc3C)c2)CC1 [Example 258] | < 100 | < 1000 |
| N#CCNC(=O)C(=O)NCc1ccccc1C(=O)NC1(c2cc(F)c(F)c(-c3cccs3)c2)CC1 [Example 239] | < 100 | > 10000 |
| CC(C)(C)OC(=O)/C=C/CNC(=O)C(=O)NCc1ccccc1C(=O)NC1(c2cccc3ccccc23)CC1 [Example 571] | 100 to 1000 | 1000 to 10000 |
| N#CCNC(=O)C(=O)NCc1ccccc1C(=O)NC1(c2cc(F)c(F)c(-c3cnn(C4CC4)c3)c2)CC1 [Example 240] | < 100 | > 10000 |
| C#CCNC(=O)C(=O)NCc1ccccc1C(=O)NC1(c2cc(-c3cnn(C(F)F)c3)cc(C(F)(F)F)c2)CC1 [Example 473] | 100 to 1000 | 1000 to 10000 |
| N#CCNC(=O)C(=O)NCc1ccccc1C(=O)NC1(c2ccc3c4c(cccc24)CC3)CC1 [Example 439] | < 100 | < 1000 |
| C#CCNC(=O)C(=O)NCc1ccccc1C(=O)NC1(c2cc(-c3cnn(C4CC4)c3)cc(Cl)c2F)CC1 [Example 302] | < 100 | < 1000 |
| N#CN1CC[C@H]1CNC(=O)C(=O)NCc1ccccc1C(=O)NC1(c2cccc3ccccc23)CC1 [Example 500] | < 100 | < 1000 |
| C[C@@H](C#Cc1ccc(C#N)c(F)c1)NC(=O)C(=O)NCc1ccccc1C(=O)NC1(c2ccc3nn(C)cc3c2)CC1 [Example 106] | < 100 | < 1000 |
| Cc1cccnc1C#C[C@H](C)NC(=O)C(=O)NCc1ccccc1C(=O)NC1(c2cc(F)cc(-c3cnn(C4CC4)c3)c2)CC1 [Example 266] | < 100 | < 1000 |
| N#CCNC(=O)C(=O)NCc1ccccc1C(=O)NC1(c2cc(-c3cnn(C4CC4)c3)c3ccccc3c2)CC1 [Example 307] | < 100 | 1000 to 10000 |
| COc1ccc(-c2cc(C3(NC(=O)c4ccccc4CNC(=O)C(=O)NCC#N)CC3)c3ccccc3c2)s1 [Example 351] | < 100 | < 1000 |
| N#CCNC(=O)C(=O)NCc1ccccc1C(=O)NC1(c2cc(-c3cnn(CC(F)F)c3)cc3ccccc23)CC1 [Example 286] | < 100 | < 1000 |
| O=C(NCC#Cc1nccs1)C(=O)NCc1ccccc1C(=O)NC1(c2cc(Cl)cc(-c3cncs3)c2)CC1 [Example 446] | < 100 | < 1000 |
| C[C@@H](C#Cc1nccs1)NC(=O)C(=O)NCc1ccccc1C(=O)NC1(c2cc(Cl)c3nn(C4CC4)cc3c2)CC1 [Example 335] | < 100 | < 1000 |
| O=C(NCC#Cc1ncc(F)cc1F)C(=O)NCc1ccccc1C(=O)NC1(c2ccc3ccccc3c2)CC1 [Example 188] | < 100 | < 1000 |
| N#CCNC(=O)C(=O)NCc1ccccc1C(=O)NC1(c2cccc(-c3cccs3)c2Cl)CC1 [Example 382] | < 100 | 1000 to 10000 |
| N#CCNC(=O)C(=O)NCc1ccccc1C(=O)NC1(c2cc(-c3cncs3)cc3ccccc23)CC1 [Example 349] | < 100 | < 1000 |
| COC(=O)/C=C/CNC(=O)C(=O)NCc1cccc(F)c1C(=O)N[C@H](C)c1cccc2ccccc12 [Example 28] | < 100 | < 1000 |
| CCOc1cccnc1C#CCNC(=O)C(=O)NCc1ccccc1C(=O)NC1(c2ccc3ccccc3c2)CC1 [Example 200] | < 100 | < 1000 |
| Cn1cc2cc(C3(NC(=O)c4ccccc4CNC(=O)C(=O)NCC#N)CC3)ccc2n1 [Example 341] | 100 to 1000 | > 10000 |
| CS(=O)(=O)/C=C/CNC(=O)C(=O)NCc1ccccc1C(=O)NC1(c2ccc3ccccc3c2)CC1 [Example 161] | < 100 | < 1000 |
| CC(C)(O)Cn1cc(-c2cc(C3(NC(=O)c4ccccc4CNC(=O)C(=O)NCC#N)CC3)c3ccccc3c2)cn1 [Example 353] | < 100 | < 1000 |
| O=C(NCC#Cc1nccs1)C(=O)NCc1cccnc1C(=O)NC1(c2cc(F)cc(-c3cnn(C4CC4)c3)c2)CC1 [Example 84] | < 100 | < 1000 |
| Cc1nn(C)c(C)c1-c1cc(F)cc(C2(NC(=O)c3ccccc3CNC(=O)C(=O)NCC#Cc3nccs3)CC2)c1F [Example 295] | < 100 | < 1000 |

| SMILES | IC50 [1] [nM] | EC50 (SARS-CoV-2 replicon) [nM] |
| --- | --- | --- |
| C#CCNC(=O)C(=O)NCc1ccccc1C(=O)NC1(c2cccc(-c3cnn(C4CC4)c3)c2Cl)CC1 [Example 381] | < 100 | < 1000 |
| C#CCNC(=O)C(=O)NCc1ccccc1C(=O)NC1(c2ccc(OC)c(Br)c2)CC1 [Example 230] | < 100 | < 1000 |
| N#CCNC(=O)C(=O)NCc1ccccc1C(=O)NC1(c2cc(-c3cnn(C4CC4)c3)nc3c2ccn3C2CC2)CC1 [Example 413] | < 100 | < 1000 |
| COc1ccc(C2(NC(=O)c3ccccc3CNC(=O)C(=O)NCC#N)CC2)cc1Br [Example 229] | < 100 | 1000 to 10000 |
| N#CCNC(=O)C(=O)NCc1ccc(OCCO)cc1C(=O)NC1(c2cccc3ccccc23)CC1 [Example 320] | < 100 | < 1000 |
| C#CCNC(=O)C(=O)NCc1ccccc1C(=O)NC1(c2ccc3c4c(cccc24)CC3)CC1 [Example 441, N1-(2-((1-(1,2-dihydroacenaphthylen-5-yl)cyclopropyl)carbamoyl)benzyl)-N2-(prop-2-yn-1-yl)oxalamide] | < 100 | < 1000 |
| O=C(NCC#Cc1nccs1)C(=O)NCc1ccccc1C(=O)NC1(c2cc(F)cc(-c3cnn(C4CC4)c3)c2F)CC1 [Example 313] | < 100 | < 1000 |
| N#CCNC(=O)C(=O)NCc1ccccc1C(=O)NC1(c2cccc3nc(Cl)ccc23)CC1 [Example 386] | < 100 | < 1000 |
| N#CCNC(=O)C(=O)NCc1ccccc1C(=O)NC1(c2cc(-c3ccn(C4CC4)n3)cc(F)c2F)CC1 [Example 306] | < 100 | < 1000 |
| O=C(C#CCNC(=O)C(=O)NCc1ccccc1C(=O)NC1(c2cccc3ccccc23)CC1)N[C@H]1CC[C@H](C(F)(F)F)CC1 [Example 520] | < 100 | < 1000 |
| COc1cc(C2(NC(=O)c3ccccc3CNC(=O)C(=O)N[C@@H](C)C#Cc3ccc(C#N)cc3F)CC2)cc2cn(C3CC3)nc12 [Example 334] | < 100 | < 1000 |
| O=C(NCC#Cc1nccs1)C(=O)NCc1ccccc1C(=O)NC1(c2cc(-c3ccn(C4CC4)n3)cc(F)c2F)CC1 [Example 305] | < 100 | < 1000 |
| O=C(NCC#Cc1cncnc1)C(=O)NCc1ccccc1C(=O)NC1(c2ccc3ccccc3c2)CC1 [Example 166] | < 100 | < 1000 |
| C#Cc1cc(C(F)(F)F)cc(C2(NC(=O)c3ccccc3CNC(=O)C(=O)NCC#N)CC2)c1 [Example 70] | 100 to 1000 | < 1000 |
| O=C(NCC#Cc1nccs1)C(=O)NCc1ccccc1C(=O)NC1(c2cc(F)cc(C(=O)Nc3ccc(F)cc3F)c2)CC1 [Example 82] | < 100 | < 1000 |
| N#CCNC(=O)C(=O)NCc1ccccc1C(=O)NC1(c2cc(-c3cnn(C(F)F)c3)cc(C(F)(F)F)c2)CC1 [Example 472] | 100 to 1000 | > 10000 |
| C[C@@H](NC(=O)c1ccccc1CNC(=O)C(=O)NCC#N)c1cccc2ccccc12 [Example 6] | < 100 | 1000 to 10000 |
| C#CCNC(=O)C(=O)NCc1ccccc1C(=O)NC1(c2cc(C#N)cc(-c3cccs3)c2)CC1 [Example 128] | < 100 | < 1000 |
| COc1cc(C2(NC(=O)c3ccccc3CNC(=O)C(=O)N[C@@H](C)C#Cc3ccc(C#N)cc3OC(F)(F)F)CC2)cc2cn(C3CC3)nc12 [Example 216] | < 100 | < 1000 |
| CC(C)n1ncnc1C#C[C@H](C)NC(=O)C(=O)NCc1ccccc1C(=O)NC1(c2cc(F)cc(-c3cnn(C4CC4)c3)c2)CC1 [Example 276] | < 100 | < 1000 |
| N#Cc1ccc(C#CCNC(=O)C(=O)NCc2ccccc2C(=O)NC2(c3ccc4ccccc4c3)CC2)c(F)c1 [Example 86] | < 100 | < 1000 |
| O=C(NCC#Cc1cncnc1)C(=O)NCc1ccccc1C(=O)NC1(c2cccc3ccccc23)CC1 [Example 158] | < 100 | < 1000 |
| COc1cccc(C#CCNC(=O)C(=O)NCc2ccccc2C(=O)NC2(c3ccc4ccccc4c3)CC2)n1 [Example 186] | < 100 | < 1000 |
| Cc1nn(C)cc1-c1cc(C2(NC(=O)c3ccccc3CNC(=O)C(=O)NCC#N)CC2)ccc1F [Example 236] | 100 to 1000 | > 10000 |
| C[C@@H](C#Cc1ncccc1Cl)NC(=O)C(=O)NCc1ccccc1C(=O)NC1(c2cc(F)cc(-c3cnn(CC(C)(C)O)c3)c2)CC1 [Example 280] | < 100 | < 1000 |
